Test results: ChEMBL document CHEMBL5131478, “3,5-Bis(trifluoromethyl)phenylsulfonamides, a novel pancreatic cancer active lead. Investigation of the terminal aromatic moiety” (Bioorg Med Chem Lett, 2022)

Key:
MCF7 = experiment: Growth inhibition of human MCF7 cells incubated for 72 hrs by MTT assay; assay type: functional
[1] = Growth inhibition of human MCF-10A cells incubated for 72 hrs by MTT assay; assay type: toxicity, cell-based
DU-145 = experiment: Growth inhibition of human DU-145 cells incubated for 72 hrs by MTT assay; assay type: functional
ASPC1 = experiment: Growth inhibition of human ASPC1 cells incubated for 72 hrs by MTT assay; assay type: functional
A2780 = experiment: Growth inhibition of human A2780 cells incubated for 72 hrs by MTT assay; assay type: functional
BXPC-3 = experiment: Growth inhibition of human BXPC-3 cells incubated for 72 hrs by MTT assay; assay type: functional
U-87 MG = experiment: Growth inhibition of human U87 cells incubated for 72 hrs by MTT assay; assay type: functional, U-87MG ATCC
[2] = Growth inhibition of human SJG2 cells incubated for 72 hrs by MTT assay; assay type: functional; details: SJ-G2
NCI-H460 = experiment: Growth inhibition of human NCI-H460 cells incubated for 72 hrs by MTT assay; assay type: functional
BE(2)-C = experiment: Growth inhibition of human BE2C cells incubated for 72 hrs by MTT assay; assay type: functional
PANC-1 = experiment: Growth inhibition of human PANC-1 cells incubated for 72 hrs by MTT assay; assay type: functional
HT-29 = experiment: Growth inhibition of human HT-29 cells incubated for 72 hrs by MTT assay; assay type: functional
MIA PaCa-2 = experiment: Growth inhibition of human MIA PaCa-2 cells incubated for 72 hrs by MTT assay; assay type: functional
A-431 = experiment: Growth inhibition of human A-431 cells incubated for 72 hrs by MTT assay; assay type: functional
Capan-2 = experiment: Growth inhibition of human Capan-2 cells incubated for 72 hrs by MTT assay; assay type: functional
HPAC = experiment: Growth inhibition of human HPAC cells incubated for 72 hrs by MTT assay; assay type: functional
MCF-10A = experiment: Cytotoxicity against human MCF-10A cells assessed as inhibition of cell growth at 25 uM incubated for 72 hrs by MTT assay; assay type: toxicity, cell-based

Row | GI50 (MCF7) | GI50 (DU-145) | GI50 (ASPC1) | GI50 (A2780) | GI50 (BXPC-3) | GI50 (U-87 MG) | GI50 (NCI-H460) | GI50 (PANC-1) | GI50 (HT-29) | GI50 (MIA PaCa-2) | GI50 (A-431) | Structure (SMILES) | GI50 at 72 h [1] | GI50 [2] | GI50 (BE(2)-C) | GI50 (Capan-2) | GI50 (HPAC) | Activity (MCF-10A)
1 | 2.1 µM | 2.7 µM | 2.7 µM | 2.9 µM | 1.4 µM | 2.3 µM | 2.5 µM | 2.5 µM | 2 µM | 2.3 µM | 2.8 µM | CC(C)(C)c1ccc(CNCCCNS(=O)(=O)c2cc(C(F)(F)F)cc(C(F)(F)F)c2)cc1 | 3.2 µM | 2.4 µM | 2.5 µM | 2.1 µM | 2.3 µM | –
2 | – | – | – | – | – | – | – | – | – | – | – | O=S(=O)(NCCNCc1ccc(Br)cc1)c1cc(C(F)(F)F)cc(C(F)(F)F)c1 | – | – | – | – | – | Non-Toxic
3 | 1.7 µM | 2.7 µM | 2.5 µM | 2.6 µM | 1.7 µM | 2.2 µM | 2.5 µM | 2.5 µM | 2.3 µM | 2.4 µM | 2.6 µM | O=S(=O)(NCCCNCc1ccc(-c2ccccc2)cc1)c1cc(C(F)(F)F)cc(C(F)(F)F)c1 | 2.8 µM | 2.3 µM | 2.6 µM | 2.2 µM | 2.7 µM | –
4 | – | – | – | – | – | – | – | – | – | – | – | O=S(=O)(NCCNCc1ccc(C(F)(F)F)cc1)c1cc(C(F)(F)F)cc(C(F)(F)F)c1 | – | – | – | – | – | Non-Toxic
5 | 1.4 µM | 2.5 µM | 2.8 µM | 2.6 µM | 1.6 µM | 1.4 µM | 2.6 µM | 4.2 µM | 2.7 µM | 2.7 µM | 2.4 µM | O=S(=O)(NCCNCc1ccc(-c2ccccc2)cc1)c1cc(C(F)(F)F)cc(C(F)(F)F)c1 | 3.3 µM | 2.5 µM | 2.7 µM | 2.4 µM | 2.8 µM | –
